2 compounds from patent publication US20100022521A1, “COMPOUNDS” (Hansa Metallwerke AG, priority 2005, published 2010) can be followed below.

pKi: −log10 of the molar value.

What is called pKi is the negative decadic logarithm of the Ki, by convention in mol/L.

The target of assay [1] is T1, rat mGluR1 (Rattus norvegicus, UniProt P23385).
T1 construct: rat cerebellar membrane preparation was used; from tissue; host or cells: rat cerebellum (membrane preparation)
Put plainly: MGluR1 receptor binding test ([3H]R214127 displacement). The following applies: rat cerebellar membrane; radioligand [3H]R214127 (3 nM); read-out: mGlu1 Ki. As to the method: MGluR1 Receptor Binding Test
MGluR1 receptor binding testes were performed according to modified method of Lavreysen et al. (Mol. Pharm., 2003, 63, 1082). Based on the high homology between the human and rat mGluR1 receptors, rat cerebellar membrane preparation was used to determine the binding characteristics of reference compounds and novel compounds to the rat mGluR1. As radioligand [3H]R214127 (3 nM) was used and the nonspecific binding was determined in the presence of 1 μM of R214127.
IC-50 values were determined from displacement curves by nonlinear regression analysis and were converted by equation method of Cheng and Prusoff (Biochem. Pharmacol., 1973, 22, 3099) to Ki values.

For assay [2], the target named is mGluR5 (UniProt P31424). Put plainly: MGluR5 receptor binding test ([3H]-M-MPEP displacement). On the set-up: species or system rat. The following applies: radioligand [3H]-M-MPEP (2 nM); species not given; read-out: mGlu5 Ki.

T1 sequence (P23385 19-1199): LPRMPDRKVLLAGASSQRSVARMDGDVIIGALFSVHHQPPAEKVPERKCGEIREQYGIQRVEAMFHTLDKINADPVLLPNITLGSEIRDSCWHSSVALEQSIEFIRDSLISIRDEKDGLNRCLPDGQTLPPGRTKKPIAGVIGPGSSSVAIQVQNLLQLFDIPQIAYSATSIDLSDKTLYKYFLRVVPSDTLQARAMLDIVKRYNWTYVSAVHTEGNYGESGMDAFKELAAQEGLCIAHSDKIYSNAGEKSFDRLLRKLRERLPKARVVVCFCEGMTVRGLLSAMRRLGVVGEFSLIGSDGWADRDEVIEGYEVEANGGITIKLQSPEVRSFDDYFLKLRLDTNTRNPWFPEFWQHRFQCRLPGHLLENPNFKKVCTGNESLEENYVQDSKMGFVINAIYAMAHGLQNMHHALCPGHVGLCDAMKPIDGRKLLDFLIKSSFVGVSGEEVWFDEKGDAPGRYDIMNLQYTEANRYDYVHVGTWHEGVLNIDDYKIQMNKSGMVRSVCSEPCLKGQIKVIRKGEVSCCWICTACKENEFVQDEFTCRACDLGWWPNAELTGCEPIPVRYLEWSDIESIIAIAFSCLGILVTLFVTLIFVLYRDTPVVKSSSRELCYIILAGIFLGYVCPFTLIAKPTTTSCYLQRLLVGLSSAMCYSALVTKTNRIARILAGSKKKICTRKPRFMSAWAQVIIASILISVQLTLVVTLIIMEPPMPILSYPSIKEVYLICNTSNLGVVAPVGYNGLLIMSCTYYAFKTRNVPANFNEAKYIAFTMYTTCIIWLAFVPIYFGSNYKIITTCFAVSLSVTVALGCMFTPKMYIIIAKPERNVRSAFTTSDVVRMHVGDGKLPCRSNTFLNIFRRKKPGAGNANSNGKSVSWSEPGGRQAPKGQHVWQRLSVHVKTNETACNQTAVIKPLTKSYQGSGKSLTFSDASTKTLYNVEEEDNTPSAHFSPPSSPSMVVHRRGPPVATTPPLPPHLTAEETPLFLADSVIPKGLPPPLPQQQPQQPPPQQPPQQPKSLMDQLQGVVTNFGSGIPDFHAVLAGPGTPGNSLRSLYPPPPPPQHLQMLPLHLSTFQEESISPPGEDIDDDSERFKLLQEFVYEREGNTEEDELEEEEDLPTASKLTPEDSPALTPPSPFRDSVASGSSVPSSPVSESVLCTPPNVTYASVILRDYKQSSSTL

Take `N#Cc1cc(F)cc(S(=O)(=O)c2sc3nc(F)ccc3c2-c2ccc(Cl)cc2)c1` [Compound 90, 2-(3-Cyano-5-fluoro-benzenesulfonyl)-3-(4-chloro-phenyl)-6-fluoro-thieno[2,3-b]pyridine]: the pKi in assay [1] is less than 5.82; in assay [2], greater than 6.30.
On to `COc1ccc(S(=O)(=O)c2sc3ncccc3c2-c2ccc(Cl)cc2)cc1F` [Compound 91], for which the pKi was 5.82 to 6.30 in assay [1] and greater than 6.30 in assay [2].
